Source: patent US20040121912A1, “Method for controlling root growth using paraquat” (priority 2002, published 2004)
Entries after “also recorded” stand apart in the source; their conditions may differ.

System: black willow (Salix nigra) roots
Experiment: Foam application to exposed roots of greenhouse-grown black willow cuttings; roots evaluated 25 days after treatment
Settings: for Dry Weight of Roots, Dead Roots / Dry Weight of Roots, Live Roots: 20 min contact, twenty-five days following treatment, average of 24 willow cuttings; for Effect on treated roots (visual inspection, living roots / root growth): foam application, twenty-five days following treatment (FIG. 3, FIG. 4)
Description: Individual branch cuttings of black willow (Salix nigra) were collected and grown in containers according to methods described in Groninger and Bohanek 2000, J. of Plant Growth Regulation 19:453-456. The cuttings were rooted in 262 ml tubes containing a 1:1 mixture of peat moss and white washed play sand. Tubes were perforated with a 2 cm^2 hole in the bottom and four 1.4 cm^2 holes on the side, 2 cm from the bottom of the tube. Cuttings were grown under greenhouse conditions in racks containing 12 tubes each with one cutting per tube. To facilitate root growth outside of the tube, the racks were placed in aluminum pans and positioned so that the base of each tube was suspended in dilute nutrient solution. Water was added as needed and a 20-20-20-NPK fertilizer was provided at a rate of 0.04 g/cutting per week into the pan. Root growth was further facilitated by maintaining the root zone in darkness by covering gaps between the edge of the rack and the pan with aluminum foil. When cuttings had been growing for approximately four months, intermingling exposed roots from adjacent cuttings were separated from one another and fine roots were allowed to regrow. Treatment were initiated when shoots averaged 0.8 meters in height with healthy foliage. At the time of treatment, each cutting produced profuse growth of roots 0.3 cm in diameter or less.
Roots of the cuttings were exposed to paraquat, diquat, Rootex, a rooting hormone, and a control. Paraquat (Gramoxone Max®, Syngenta, containing 43.8% paraquat) was applied to roots cuttings at two rates, 2.0 and 4.0 ml/L. Diquat (Reward®, Syngenta, containing 37.3% diquat) was applied at 4.0 ml/L. Each treatment of the four treatments were applied in 1.0 L water solution with a 2% alkyl polyglycoside-based foaming agent, AU-340 (Adjuvants Unlimited, Tulsa, Okla.) using a foam generator to simulate a standard application of chemicals in controlling tree roots in sewer lines. Roots were placed in contact with foam solution for 20 minutes. […] Upon removal of foam solution, cuttings and their exposed roots were returned to pretreatment nutrient conditions with residual foam permitted to maintain contact with exposed roots.
Evaluation of roots was conducted twenty-five days following treatment. Roots were visually inspected, harvested, separated into living and dead groups, dried and weighed for dry mass determination.

## c1cc[n+]2c(c1)-c1cccc[n+]1CC2 [Diquat]
4.0 ml/L of stock in foam
  Dry Weight of Roots, Dead Roots: 0.9 g/willow cutting
  Dry Weight of Roots, Live Roots: 0 g/willow cutting
  Effect on treated roots (visual inspection, living roots / root growth): No living roots

## C[n+]1ccc(-c2cc[n+](C)cc2)cc1 [Paraquat, 1,1′-dimethyl-4,4′-bipyridium ion]
2.0 ml/L of stock in foam
  Dry Weight of Roots, Dead Roots: 0.7 g/willow cutting
  Dry Weight of Roots, Live Roots: 0 g/willow cutting
4.0 ml/L of stock in foam
  Dry Weight of Roots, Dead Roots: 2.2 g/willow cutting
  Dry Weight of Roots, Live Roots: 0 g/willow cutting
  Effect on treated roots (visual inspection, living roots / root growth): destruction of the test roots; also recorded: No living roots
Green house testing, applied as a dense foam to tree roots
  Damage to the upper portion of the trees: without causing damage
